From PubChem BioAssay (NCI) come the findings set out here.

Values joined by “and” are separate entries in the source; they are usually repeats but may differ in a detail not shown here. Equal entries are not always repeated.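 Each compound was tested at five concentrations against cells in 96-well plates for 48 hours. GI50 marks 50% less growth. TGI marks complete inhibition of growth.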

Some test systems named below: ACHN renal; HL-60(TB) leukemia; HOP-62 NSCLC; K-562 leukemia; M14 melanoma; MDA-MB-435; OVCAR-8 ovarian; SK-MEL-5 melanoma; SR leukemia; U251 CNS.
Holding throughout (test): NCI-60 cell line screen, 48 h

For the compound `NC1=CN2c3ccccc3N(CC(=O)O)C2C=C1` (stereo not given), the TGI in the assay with ACHN renal, with HL-60(TB) leukemia, in the assay with HOP-62 NSCLC, in the assay on K-562 leukemia, in the assay on M14 melanoma and in the assay on MDA-MB-435 was greater than 100 µM in each case. For the same compound, the TGI in the assay on OVCAR-8 ovarian, with SK-MEL-5 melanoma, with SR leukemia and in the assay on U251 CNS was greater than 100 µM throughout.
With `CC[C@H]1C=CCC[C@@]2(C[C@@H]3CC[C@H]4[C@@H](C(=O)OCCCCCCCCCCCCCCCC(=O)N(CCCN)C[C@@H](O)CCN)[C@@]5(CCC[C@@H](C)O5)NC(=[N+]34)N2)O1`, the TGI with ACHN renal was greater than 10 µM; in the assay with HL-60(TB) leukemia it was 4.24 µM; with HOP-62 NSCLC, 3.06 µM; in the assay with K-562 leukemia, 3.18 µM; with M14 melanoma, 3.82 µM; in the assay with MDA-MB-435 it was 2.88 µM. Further, the TGI with OVCAR-8 ovarian amounted to 4.93 µM; with SK-MEL-5 melanoma, 2.87 µM; in the assay on SR leukemia, 3.78 µM; with U251 CNS it was 3.05 µM.
Take `CC1OC(OC2C(OC(=O)[C@]34CCC(C)(C)C[C@H]3C3=CC[C@@H]5[C@@]6(C)CC[C@H](OC7OC(C(=O)O)C(O)C(OC8OCC(O)C(O)C8O)C7O)C(C)(C)[C@@H]6CC[C@@]5(C)[C@]3(C)CC4)OCC(O)C2O)C(O)C(OC2OCC(O)C(O)C2O)C1OC1OCC(O)C(OC2OCC(O)C(O)C2O)C1O` (stereo not given in full): the TGI in the assay with ACHN renal is 19.6 µM and 25.1 µM; with HL-60(TB) leukemia it was 6.18 µM and 29.5 µM; in the assay with HOP-62 NSCLC, 30.7 µM and 32.6 µM; in the assay with K-562 leukemia it was 21.4 µM and 33.6 µM; in the assay on M14 melanoma, 17 µM and 34 µM; in the assay on MDA-MB-435, 20.1 µM and 32 µM. Besides, the TGI was 27.7 µM and 43.1 µM with OVCAR-8 ovarian; 29.6 µM and 35 µM in the assay on SK-MEL-5 melanoma; 8.95 µM and 26.8 µM in the assay with SR leukemia; 24.8 µM and 62 µM in the assay on U251 CNS. The GI50 with HL-60(TB) leukemia was 2.28 µM and 12.6 µM; with K-562 leukemia, 7.42 µM and 17.1 µM; in the assay with M14 melanoma it was 5.97 µM and 19.2 µM; in the assay with MDA-MB-435 it was 7.32 µM and 16.7 µM; with SR leukemia it was 2.83 µM and 11.1 µM; in the assay on U251 CNS, 10.9 µM and 24.2 µM.
As for `CN(/N=C/c1ccnc2ccccc12)c1ccc(Cl)cc1[N+](=O)[O-]`, the TGI in the assay on ACHN renal, in the assay with HL-60(TB) leukemia, in the assay on HOP-62 NSCLC, in the assay with K-562 leukemia, with M14 melanoma and in the assay on MDA-MB-435 was greater than 100 µM each time. Moreover, the TGI in the assay on OVCAR-8 ovarian, with SK-MEL-5 melanoma, in the assay on SR leukemia and in the assay on U251 CNS was greater than 100 µM in each case.
Consider `Cc1ccc2nc(-c3ccc(N4C(=O)C(Cl)C4c4ccc(Cl)cc4)cc3)sc2c1` (stereo not given), for which the TGI in the assay with ACHN renal is 50.7 µM; in the assay on HL-60(TB) leukemia, greater than 100 µM; with HOP-62 NSCLC, 61.7 µM; in the assay with K-562 leukemia, 60.2 µM; in the assay on M14 melanoma it was 57 µM; in the assay with MDA-MB-435, 36.6 µM. The TGI in the assay on OVCAR-8 ovarian worked out at 81.1 µM; in the assay with SK-MEL-5 melanoma, 28.2 µM; with SR leukemia it was 57.9 µM; in the assay with U251 CNS, 42.4 µM.
On to `CN(c1ccccc1Cl)S(=O)(=O)c1ccc([N+](=O)[O-])cc1`, for which the TGI in the assay on ACHN renal, with HL-60(TB) leukemia, in the assay on HOP-62 NSCLC, in the assay with K-562 leukemia, in the assay with M14 melanoma and with MDA-MB-435 was greater than 100 µM throughout. Also, the TGI with OVCAR-8 ovarian, in the assay on SK-MEL-5 melanoma, with SR leukemia and in the assay on U251 CNS was greater than 100 µM each time.
In the case of `O=C(CNc1ccccc1[N+](=O)[O-])Nn1c(-c2ccccc2)nc2ccccc2c1=O`, the TGI in the assay on ACHN renal is 56.9 µM; with HL-60(TB) leukemia, greater than 100 µM; in the assay with HOP-62 NSCLC, 42.8 µM; with K-562 leukemia, 41.9 µM; with M14 melanoma, 38.1 µM; with MDA-MB-435 it was 60.1 µM. Besides, the TGI was greater than 100 µM with OVCAR-8 ovarian, 22.1 µM in the assay with SK-MEL-5 melanoma, 71.7 µM in the assay on SR leukemia and 40.6 µM in the assay with U251 CNS.
As for `CCCCCCCCCCC1OC([C@@H](O)CC[C@H](O)C2CC[C@@H](CCCCCCCC(O)CC3=CC(C)OC3=O)O2)CCC1O` (stereo not given in full), the GI50 is 1.62 µM in the assay on ACHN renal; 4.47 µM in the assay with HL-60(TB) leukemia; 6.29 µM with HOP-62 NSCLC; 2.48 µM with K-562 leukemia; 4.81 µM in the assay with M14 melanoma; 1.59 µM in the assay on MDA-MB-435. For the same compound, the GI50 with OVCAR-8 ovarian is 9.96 µM; in the assay on SK-MEL-5 melanoma, 1.81 µM; with U251 CNS it was 4 µM. Also, the TGI in the assay with ACHN renal is 8.79 µM and > 25 µM; with HL-60(TB) leukemia, greater than 25 µM; in the assay with HOP-62 NSCLC it was greater than 25 µM; in the assay on K-562 leukemia, greater than 25 µM; in the assay with M14 melanoma it was greater than 17.5 µM; with MDA-MB-435, 5.58 µM and > 20.2 µM. Also, the TGI is greater than 25 µM in the assay with OVCAR-8 ovarian; 9.13 µM and > 10.5 µM in the assay with SK-MEL-5 melanoma; 16.5 µM in the assay on SR leukemia; greater than 25 µM in the assay on U251 CNS.
Take `COc1ccc2cc(CN3CCC(C4CCNCC4)CC3)ccc2c1`: the TGI amounted to 11.9 µM in the assay with ACHN renal; 3.38 µM with HL-60(TB) leukemia; 8.98 µM with HOP-62 NSCLC; 3.22 µM with K-562 leukemia; 3.15 µM with M14 melanoma; 3.58 µM with MDA-MB-435. The TGI stood at 22.1 µM in the assay on OVCAR-8 ovarian, 3.1 µM with SK-MEL-5 melanoma, 5.16 µM in the assay with SR leukemia and 3.74 µM with U251 CNS.
Consider `COc1ccc(OC)c(NS(=O)(=O)c2ccc3nc(C)n(NS(=O)(=O)c4cc(OC)ccc4OC)c(=O)c3c2)c1`, for which the TGI in the assay on ACHN renal, in the assay with HL-60(TB) leukemia, with HOP-62 NSCLC, in the assay with K-562 leukemia, in the assay with M14 melanoma and in the assay with MDA-MB-435 was greater than 100 µM each time. Also, the TGI in the assay with OVCAR-8 ovarian, in the assay with SK-MEL-5 melanoma, in the assay on SR leukemia and in the assay on U251 CNS was greater than 100 µM in each case.
Take `CC(=O)N=C1N(/C=C2\C(=O)Oc3ccccc3C2=O)C(=O)/C(=C/c2ccc(Cl)cc2Cl)N1C`: the TGI in the assay with ACHN renal, with HL-60(TB) leukemia, in the assay with HOP-62 NSCLC, in the assay with K-562 leukemia, in the assay on M14 melanoma and in the assay with MDA-MB-435 was greater than 100 µM each time. Also, the TGI was greater than 100 µM in the assay with OVCAR-8 ovarian, greater than 100 µM in the assay on SK-MEL-5 melanoma, 94.2 µM with SR leukemia and greater than 100 µM with U251 CNS.
On to `COc1c(O)cc2c(c1O)C(=O)/C(=C/c1ccc(O)cc1)CO2`, for which the TGI in the assay on ACHN renal is 48.3 µM; in the assay with HL-60(TB) leukemia, greater than 100 µM; in the assay on HOP-62 NSCLC, 76.3 µM; with K-562 leukemia it was 95.2 µM; in the assay on M14 melanoma, 61.1 µM; in the assay with MDA-MB-435 it was greater than 100 µM. In addition, the TGI with OVCAR-8 ovarian was 39.6 µM; with SK-MEL-5 melanoma, 59.6 µM; in the assay on SR leukemia, 40.9 µM; with U251 CNS, greater than 100 µM.
Consider `Cc1ccc(/C(O)=C/c2nc3ccccc3s/c2=N/CS(=O)(=O)c2ccc(C)cc2)cc1`, for which the TGI with ACHN renal, in the assay on HL-60(TB) leukemia, in the assay on HOP-62 NSCLC, in the assay with K-562 leukemia, in the assay with M14 melanoma and in the assay with MDA-MB-435 was greater than 10 µM throughout. The TGI in the assay on OVCAR-8 ovarian, with SK-MEL-5 melanoma, in the assay on SR leukemia and with U251 CNS was greater than 10 µM each time.
Regarding `Cc1ccc(/C=N/Nc2ccc3ccccc3n2)s1`, the TGI is 39.9 µM in the assay on ACHN renal; greater than 100 µM in the assay on HL-60(TB) leukemia; 41.1 µM with HOP-62 NSCLC; greater than 100 µM in the assay with K-562 leukemia; 58.8 µM in the assay with M14 melanoma; 56.7 µM in the assay on MDA-MB-435. In addition, the TGI in the assay on OVCAR-8 ovarian is greater than 100 µM; in the assay with SK-MEL-5 melanoma, 30.7 µM; with SR leukemia, greater than 100 µM; with U251 CNS, 67.6 µM.
For the compound `COc1cc2c(cc1OC)C1(COc3cc(O)c(O)c(O)c3C1=O)C2` (stereo not given), the TGI in the assay on ACHN renal, with HL-60(TB) leukemia, in the assay with HOP-62 NSCLC, in the assay with K-562 leukemia, with M14 melanoma and in the assay on MDA-MB-435 was greater than 50 µM in each case. In addition, the TGI with OVCAR-8 ovarian, in the assay on SK-MEL-5 melanoma, with SR leukemia and in the assay with U251 CNS was greater than 50 µM each time.
Take `CCOC(=O)c1sc2[n+](c1C)C(=O)/C(=C/c1ccc([N+](=O)[O-])cc1)S2`: the TGI in the assay on ACHN renal is greater than 100 µM; in the assay on HL-60(TB) leukemia, greater than 100 µM; in the assay with HOP-62 NSCLC, 74 µM; in the assay on K-562 leukemia it was 83.4 µM; with M14 melanoma, greater than 100 µM; with MDA-MB-435, 46.2 µM. Further, the TGI with OVCAR-8 ovarian is 69.9 µM; in the assay on SK-MEL-5 melanoma, 72.1 µM; in the assay on SR leukemia it was 57.7 µM; in the assay on U251 CNS, 40.3 µM.
Turning to `C=C1C(=O)O[C@@H]2C=C(C)C3=CC(=O)[C@](C)(C[C@H](OC(=O)/C(C)=C\C)[C@@H]12)O3`, the TGI was found to be 3 µM in the assay on ACHN renal; 0.563 µM in the assay on HL-60(TB) leukemia; 10.5 µM in the assay on HOP-62 NSCLC; 2.04 µM with K-562 leukemia; 2.46 µM with M14 melanoma; 3.74 µM in the assay with MDA-MB-435. In addition, the TGI in the assay with OVCAR-8 ovarian amounted to 2.18 µM; in the assay with SK-MEL-5 melanoma, 2.03 µM; in the assay with SR leukemia, 0.786 µM; in the assay on U251 CNS, 4.85 µM.
Regarding `c1c[nH]c(C23C4C5C6C4C2C6C53)n1` (stereo not given), the TGI in the assay on ACHN renal, in the assay with HL-60(TB) leukemia, in the assay with HOP-62 NSCLC, in the assay with K-562 leukemia, with M14 melanoma and with MDA-MB-435 was greater than 100 µM in each case. Further, the TGI with OVCAR-8 ovarian, in the assay with SK-MEL-5 melanoma, in the assay on SR leukemia and in the assay on U251 CNS was greater than 100 µM in each case.
In the case of `Nc1nn2c(nc(N)c3c(N)[nH]nc32)c1N=Nc1ccc(Br)cc1`, the TGI was greater than 100 µM in the assay on ACHN renal; 77.9 µM in the assay with HL-60(TB) leukemia; greater than 93 µM in the assay on HOP-62 NSCLC; greater than 100 µM with K-562 leukemia; greater than 53.6 µM with M14 melanoma; greater than 27.9 µM in the assay with MDA-MB-435. Moreover, the TGI in the assay on OVCAR-8 ovarian was greater than 97.1 µM; with SK-MEL-5 melanoma, greater than 100 µM; in the assay on SR leukemia, greater than 100 µM; in the assay on U251 CNS, 30.7 µM.
As to `CCOC(=O)C(Cc1cccn1C(=O)OC(C)(C)C)[N+](=O)[O-]` (stereo not given), the TGI worked out at 47.5 µM in the assay with ACHN renal; 48.1 µM with HL-60(TB) leukemia; 56.7 µM in the assay on HOP-62 NSCLC; 79.6 µM in the assay with K-562 leukemia; 40.9 µM with M14 melanoma; 77.1 µM in the assay on MDA-MB-435. The TGI is 93 µM in the assay with OVCAR-8 ovarian, 37.9 µM in the assay with SK-MEL-5 melanoma, 45 µM with SR leukemia and 50.9 µM in the assay on U251 CNS.
